These results are taken from patent US20260242349A1, “N,N'-SULFONIMIDAMIDES AS ANTICANCER, ANTIINFLAMMATORY, ANTIFIBROTIC AND NEUROPROTECTIVE AGENTS” (Atux Iskay LLC, priority 2023, published 2026).

The test system of this assay is D425 medulloblastoma cells. The experiment in a line: Cancer cell viability inhibition (CellTiter-Glo Luminescent Cell Viability Assay). The class given is cell-based. The note with it: 48 hours treatment, CellTiter-Glo luminescence, test range 1-30 uM, read-out: IC50 for D425 cell growth. As to the method:
D425 medulloblastoma cells were purchased from SigmaAldrich. D425 meduloblastoma cells were cultured in improved Dulbecco's modified Eagle's medium (DMEM) Richter's modification supplemented with 20% fetal bovine serum and 1% Penicillin-streptomycin. Incubation was performed at 37° C. and 5% CO2.
D425 cells were seeded at 3000-3500 cells/90 ul growth medium per well on 96-well tissue culture plates. Cells were incubated overnight to allow them to recover. Next day cells were treated with tested compounds and incubated for 48 hours.
Cell Proliferation assays in triplicate were performed at each concentration. Compounds test range was 1-30 uM (0, 5, 10, 15, 20, 25, and 30). The compounds were dissolved in DMSO. […]
After treatment, cells were allowed to equilibrate at room temperature for one hour. Cell proliferation was measured by Luminescence quantification using Promega CellTiter-Glo Luminescent Cell Viability Assay. […] Luminescence intensity was measured using the Spectramax i3× plate reader.
The Luminescence intensity data were analyzed using the computer software Graphpad Prism. In the absence of the compound, the luminescence intensity (Lt) in each data set was defined as 100% cell viability. The percent cell in the presence of each compound was calculated according to the following equation: % Cell=L/Lt, were L=the luminescence intensity in the presence of the compound. […]
(Cellular ATP, detected with luciferase, serves as a proxy for viable cell number.)

SMILES strings stand for the structures.

For the molecule `N=S(=O)(Nc1ccc(OC(F)(F)F)cc1)N1CCCC(C2c3ccccc3CCc3ccccc32)C1` (stereo not shown) [Example 2], the IC50 (usually the concentration needed to halve the response being measured) turned out to be 9.4 µM.
